# Results: patent US5981698A, “Antimicrobial polypeptides” (CyberChemics, Inc., priority 1997, dated 1999)
# Peptide text beside a SMILES is read from it.
# Assays:
# [1] = tested on: E. coli(25922); test: Minimum inhibitory concentration, broth microdilution in Mueller-Hinton media; assay type: cell-based, Escherichia coli; details: E. coli (ATCC 25922), Gram negative
# Description: (§1) Table III lists the minimum inhibitory concentration (ug/mL) for the various organisms assayed in Mueller-Hinton growth media. Details of the microbiological techniques employed are available to those skilled in the art, for instance from the American Type Tissue Culture Catalog (ATCC, Maryland) or DIFCO Manual, 10th Edition, 1984, pp. 78-80. For instance, a cultured solution of the bacterial strains Escherichia coli (American Tissue Culture Collection, Maryland) ATCC […] and Pseudomonas aeruginosa ATCC 27853 can be tested to model Gram-negative bacteria. Bacteria were grown overnight at 37 C. in Mueller-Hinton broth, reinoculated and incubated at 37 C. to reach the exponential phase of bacterial growth [i.e. a final bacterial suspension cantaining from 100,000 to 500,000 colony-forming units [(CFU)/ml]. In 96 well tissue culture plates, peptides dissolved in distilled water were added to the bacterial suspension at concentrations varying between 1000 to 2 ug/mL derived from serial dilutions, and then incubated overnight at 37 C.
# [2] = tested on: Ps. Aruginosa(13883); test: as above; assay type: cell-based, Pseudomonas aeruginosa; details: Ps. Aruginosa (ATCC 13883), Gram negative
# Description: as §1
# [3] = tested on: Staph aureus(25923); test: as above; assay type: cell-based; details: Staph aureus (ATCC 25923), Gram positive
# Description: as §1
# [4] = tested on: Pichia; test: Minimum inhibitory concentration, broth microdilution; assay type: cell-based; details: Yeast Pichia
# Description: as §1
# [5] = tested on: Sac.cerv.; test: as above; assay type: cell-based; details: Yeast Sac.cerv.
# Description: as §1
# [6] = Solubility (optical density readings); assay type: physicochemical
# Description: (§2) Table III lists the approximate pharmacokinetics of synthetic peptides described in the present invention which solubilize readily, persist in conformationally active secondary structures in vivo, and induce lysis of representative bacteria, yeast and fungi. These determinations derive from optical density readings (O.D.) and rely on spectrophotometric absorbance from known initial concentrations as reference standards. The optimal therapeutic index for dosage and effective antimicrobial inhibition of a particular polypeptide or salt thereof range between 10-100 and follow routinely without elaborate laboratory determinations by those skilled in the art of pharmacokinetics and metabolic pathways using, for instance, various cytochrome and liver enzymes in vivo.
# [7] = Biostability half-life, mammalian; assay type: in vitro ADME
# Description: as §2
# [8] = Biostability half-life, yeast; assay type: in vitro ADME
# Description: as §2
# [9] = Biostability half-life, E. coli; assay type: in vitro ADME
# Description: as §2
# [10] = tested on: representative bacteria, yeast and fungi; test: Antimicrobial action (general statement); assay type: cell-based
# Description: as §1, with “In 96 well tissue culture plates, peptides dissolved in distilled water were added to the bacterial suspension at concentrations varying between 1000 to 2 ug/mL derived from serial dilutions, and then incubated overnight at 37 C.” left out
# Table III lists the approximate pharmacokinetics of synthetic peptides described in the present invention which solubilize readily, persist in conformationally active secondary structures in vivo, and induce lysis of representative bacteria, yeast and fungi. These determinations derive from optical density readings (O.D.) and rely on spectrophotometric absorbance from known initial concentrations as reference standards. […]
Molecule,Minimum Inhibitory Concentration (MIC) [1],Minimum Inhibitory Concentration (MIC) [2],Minimum Inhibitory Concentration (MIC) [3],Minimum Inhibitory Concentration (MIC) [4],Minimum Inhibitory Concentration (MIC) [5],Solubility [6],solubility relative to B.t. fragment SEQ. 2 ([6]; ratio SEQ. 1 / SEQ. 2),Biostability Half-life Mammalian [7],Biostability Half-life Yeast [8],Biostability Half-life E. coli [9],antimicrobial potency [10]
"GIGTLLGKKKTKFLKNILKL [SEQ. ID 1, 20-residue antimicrobial peptide, modified from a Bacillus thuringiensis delta-endotoxin fragment]",16.00 µg/mL,32.00 µg/mL,63.00 µg/mL,8.00 µg/mL,16.00 µg/mL,85.09 ug/100 g,5 times,30.00 h,20.00 h,10.00 h,sub-micromolar
"CC[C@H](C)[C@H](NC(=O)[C@H](CC(C)C)NC(=O)[C@H](CC(N)=O)NC(=O)[C@H](CCCNC(=N)N)NC(=O)[C@H](CC(C)C)NC(=O)[C@H](CCC(=O)O)NC(=O)[C@H](CO)NC(=O)[C@H](CC(C)C)NC(=O)[C@@H](NC(=O)[C@H](CCCNC(=N)N)NC(=O)[C@H](CCCCN)NC(=O)CNC(=O)[C@@H](NC(=O)[C@H](CC(C)C)NC(=O)[C@H](CO)NC(=O)CNC(=O)[C@@H](N)C(C)C)C(C)C)[C@@H](C)CC)C(N)=O [SEQ. ID 2, VGSLVGKRILSELRNLI] (H-VGSLVGKRILSELRNLI-NH2)",–,–,–,–,–,16.50 ug/100 g,–,100.00 h,20.00 h,10.00 h,–
